From patent US7446091B2, “Methods and preparations for curing clinically ill patients” (Novo Nordisk A/S, priority 2000, dated 2008)

Test system: patients treated in the ICU
Test: Example 1: prospective clinical study, weekly EMG screening for CIPNP in long-stay ICU patients
Assay type: in vivo, human
Settings: for CIPNP-free time on the ICU: long-stay patients
Experimental: Between Feb. 2 and Apr. 25, 2000, 400 patients were included in the study. […] All other treatments, including feeding regimens, were according to standing orders currently applied within the ICU. Exclusion criteria were age <18y, pregnancy and not being intubated at admission.
When patients were still treated in the ICU after 7 days, a weekly EMG examination was performed to screen for the presence of CIPNP. The EMGs were always interpreted by the same expert in electrophysiology. In order to accurately assess ICU stay, which is often determined by other factors than the patient's condition—e.g. bed availability on the wards—“end of ICU stay” was defined as the day on which the attending physician considers the patient to be “ready for discharge”.

**Q.** What does the source list for insulin?
**A.** Long-stay ICU patients with a positive EMG for CIPNP (% of the long stayers) (intensive insulin group): 39%; Number of positive EMGs for CIPNP per patient (mean ± SD) (intensive insulin group): 0.9±1.8; Number of positive EMGs for CIPNP per patient (median) (intensive insulin group): zero; Long-stay ICU patients with a positive EMG for CIPNP at any time during the ICU stay, number (intensive insulin group, 38 long-stay patients): Fifteen; ICU-mortality, difference between the two treatment groups (intensive vs restrictive insulin schedule, P=0.4): not detectably different; CIPNP-free time on the ICU (intensive insulin group): 2.1±1.8 weeks; CIPNP-free time on the ICU (restrictive insulin group): 1.1±1.2 weeks; Long-stay ICU patients with a positive EMG for CIPNP (% of the long stayers) (restrictive insulin group): 67%; Number of positive EMGs for CIPNP per patient (mean ± SD) (restrictive insulin group): 1.8±2.1; Number of positive EMGs for CIPNP per patient (median) (restrictive insulin group): 1; Long-stay ICU patients with a positive EMG for CIPNP at any time during the ICU stay, number (restrictive insulin group, 45 long-stay patients): 30
